From patent US4357341A, “Specific irreversible antagonism of histamine receptors by photoaffinity actuated compounds” (priority 1981, dated 1982) come the findings set out here.

What is called pEC50 is the EC50 on a negative log10 scale, so that one unit is a factor of ten.

pEC50: −log10 of the molar value. Like-named read-outs stand apart in the source and are kept apart here.

Data set [1] has as its target T1, histamine receptor (H1), isolated guinea pig vas deferens (Cavia porcellus, UniProt P31389). Nature of the data set: cell-based. Further details: Emax: dose or concentration left out as unconfirmed. The method, then: Adult, albino guinea pigs (250-350 g; Hilltop Lab Animals, Scottdale, PA) were killed by a blow to the head. Vasa deferentia were removed, desheathed and mounted in conventional apparatus for the measurement of isometric contractile responses. Each tissue preparation was bathed in a separate glass, water-jacketed organ chamber containing modified Krebs-Henseleit solution (37° C.) for one hour prior to the beginning of the experiment. The tissues were washed every 15 minutes. Resting tension was 200 mg. Agonist agents were added to the bath with stepwise increases in concentration. The agonists were added at 10 minute intervals and the tissues were exposed to each concentration for 2 minutes; the tissues were washed twice with agonist-free Krebs-Henseleit solution, at 5 minute intervals, between agonist additions.
Effect of AAH after irradiation in the presence of histamine receptor ligands. […] AAH was then added to the test tissue, leaving the control exposed only to ligand, and after a 5-minute incubation, both the test and control tissues were irradiated for 5 minutes. Both tissues were washed twice with fresh Krebs-Henseleit solution to remove all agents, and concentration-response determinations were performed 10 minutes after irradiation.

The test system of data set [2] is smooth muscle of the guinea-pig vas deferens, KCl responses. Nature of the data set: KCl-induced contraction of isolated vas deferens (specificity of AAH). It is filed as cell-based. The method, then:
(§1) The tissues were washed every 15 minutes. Resting tension was 200 mg.
(§2) The effects of AAH on the response of the smooth muscle of the guinea-pig vas deferens to several agonists were examined using the following protocols.
(§3) Effect of AAH after photoactivation. While in the organ bath, one tissue of a pair was exposed to AAH for 5 minutes. The preparation was then irradiated with a tungsten-halogen projector lamp (DVY, 650 W, 3400° K., filament ca. 10 cm from the tissue) for 5 minutes. Bath temperature remained at 37° C. during irradiation. At the end of irradiation the tissues were washed twice with fresh Krebs-Kenseleit solution lacking AAH. Concentration-response determinations were begun 10 minutes after irradiation. Contralateral control tissues were irradiated in the absence of AAH and otherwise handled identically. […] Also shown is the time-course of the decline of absorbance at 266 nm. The native spectrum, consisting of a pronounced peak at 266 nm, shoulder at 286 and broad peak at 480-485 nm, was changed by photolysis in a time-dependent manner to one with several smaller peaks and troughs.
(§4) Effect of AAH without photoactivation. Two types of experiments were performed with non-irradiated AAH. In the first type, the test tissue was exposed to AAH for 10 minutes but not irradiated during the latter five minutes; the AAH was washed out before agonist agents were added. That is, the same schedule as was used above was employed, but the preparations were not irradiated. In the second type of experiment with non-irradiated AAH, the compound was added to the bath 15 minutes before and remained present during the addition of agonists. The contralateral control tissues for these experiments received no treatment.

For data set [3], the system named is smooth muscle of the guinea-pig vas deferens, acetylcholine responses. Nature of the data set: Acetylcholine-induced contraction of isolated vas deferens (specificity of AAH). It is filed as cell-based. The method, then:
as §1, §2, §3, §4

Data set [4] concerns guinea pig vas deferens. Nature of the data set: Direct contractile effect on isolated vas deferens. It is filed as cell-based. The conditions noted are these: AAH in the concentrations used. The method, then: as §1
Data set [5] deals with T1, histamine receptor (H1), isolated guinea pig vas deferens. Nature of the data set: Histamine-induced contraction of isolated vas deferens in the continual presence of non-irradiated AAH. It counts as cell-based. Further details: smooth muscle of the guinea-pig vas deferens; from tissue; host or cells: isolated, desheathed vas deferens of adult albino guinea pigs (Hilltop Lab Animals, Scottdale, PA). The method, then: as §1, §2, §4

Data set [6] deals with smooth muscle of the guinea-pig vas deferens, norepinephrine responses. As to the kind of experiment: Norepinephrine-induced contraction of isolated vas deferens (specificity of AAH). It is filed as cell-based. The conditions noted are these: 3×10^-5 M AAH. The method, then:
as §1, §2, §3
(§5) Effect of AAH without photoactivation. Two types of experiments were performed with non-irradiated AAH. In the first type, the test tissue was exposed to AAH for 10 minutes but not irradiated during the latter five minutes; the AAH was washed out before agonist agents were added. […]

The target in data set [7] is T1, histamine receptor (H1), isolated guinea pig vas deferens. As to the kind of experiment: Histamine-induced contraction of isolated vas deferens after photolysis and washout of AAH. The arrangement: smooth muscle of the guinea-pig vas deferens; from tissue; host or cells: isolated, desheathed vas deferens of adult albino guinea pigs (Hilltop Lab Animals, Scottdale, PA). It counts as cell-based. The method, then: as §1, §2, §3

The nature of data set [8]: Photolysis of AAH (absorbance decline at 266 nm). It counts as physicochemical. The method, then: FIG. 1 is spectra of 3×10^-5 M AAH (dissolved in modified Krebs-Henseleit solution) sampled before (solid line) and 5 minutes (dashed line) and 60 minutes (dotted line) after the beginning of irradiation. The reference cuvette contained modified Krebs-Henseleit solution. The inset illustrates the time-course of decline in absorbance a 266 nm; data points were obtained from scans performed after the irradiation intervals shown.
as §3

Data set [9] deals with T1, histamine receptor (H1), isolated guinea pig vas deferens. As to the kind of experiment: Histamine-induced contraction of isolated vas deferens after incubation with non-irradiated AAH and washout. It counts as cell-based. Further details: smooth muscle of the guinea-pig vas deferens; from tissue; host or cells: isolated, desheathed vas deferens of adult albino guinea pigs (Hilltop Lab Animals, Scottdale, PA). The conditions noted are these: 3×10^-5 M AAH, 10 min incubation, not photoactivated, washed out. The method, then: as §1, §2, §4

The subject of data set [10] is smooth muscle of the guinea-pig vas deferens, MgATP responses. Nature of the data set: MgATP-induced contraction of isolated vas deferens (specificity of AAH). It is filed as cell-based. Conditions: 3×10^-5 M AAH. The method, then: as §1, §2, §3, §5
Where [11] appears, read: 3×10^-5 M AAH, non-irradiated, continually present.
The mark [12] stands for this setting: 3×10^-5 M AAH, photoactivated, washed out.
[13] abbreviates: non-irradiated, continually present.
Where [14] appears, read: 3×10^-6 M AAH, photolyzed, washed out.
Setting [15] is: 10^-5 M AAH, photolyzed, washed out.

T1 sequence (P31389 whole entry): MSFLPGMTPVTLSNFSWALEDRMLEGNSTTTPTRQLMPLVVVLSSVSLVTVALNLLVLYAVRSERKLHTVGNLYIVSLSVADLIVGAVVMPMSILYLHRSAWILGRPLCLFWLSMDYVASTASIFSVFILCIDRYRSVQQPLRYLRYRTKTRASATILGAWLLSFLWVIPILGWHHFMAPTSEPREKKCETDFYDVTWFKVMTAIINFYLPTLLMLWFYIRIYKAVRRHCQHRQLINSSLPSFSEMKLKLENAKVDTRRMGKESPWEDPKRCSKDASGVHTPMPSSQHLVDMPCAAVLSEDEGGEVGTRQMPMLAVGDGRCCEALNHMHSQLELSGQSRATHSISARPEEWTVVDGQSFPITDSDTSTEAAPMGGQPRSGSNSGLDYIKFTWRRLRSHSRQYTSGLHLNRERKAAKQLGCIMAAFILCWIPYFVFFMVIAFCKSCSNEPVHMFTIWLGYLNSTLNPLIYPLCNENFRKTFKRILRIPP

For the compound `NCCc1c[nH]cn1` [histamine, 2-(4-imidazolyl)ethylamine], the “protection against AAH-induced antagonism when present during photoactivation of AAH” value in data set [1] (3×10^-4 M histamine with AAH, n=4) is reported as “no protective effect”. The Emax in data set [1] (read-out: response of the tissue, % of maximum response to histamine) was 90 to 100%.

As for `[Cl-].[K+]` [KCl, reference compound], the pEC50 in data set [2] (irradiated control without AAH, read-out: EC50 of KCl, control) is 1.70; in data set [2] (non-irradiated control without AAH, read-out: EC50 of KCl, control), 1.60.

For `[N-]=[N+]=Nc1ccc(NCCc2c[nH]cn2)c([N+](=O)[O-])c1` [AAH, 4(5)-[2-(4-azido-2-nitroanilino)ethyl]imidazole], the “effect on concentration-response relationship for ACh” value in data set [3] (setting [11]) was “no significant effect on concentration-response relationships”. The “effect on the maximum response to ACh” value in data set [3] (setting [12]) was “no effect on the maximum response to ACh”. Also, the “shift of the ACh concentration-response curve to the right of control” value in data set [3] (setting [12]) is given as 3.07 fold. The “responses to acetylcholine after photolysis of AAH” value in [3] (photolyzed AAH) is listed as “only slightly reduced”. The “contraction upon addition to the organ bath” value in data set [4] is given as “did not cause a contraction”. Further, the “effect on the response to histamine” value in data set [5] (setting [11]) is on record as “abolished the response to histamine”. Also, the “shift of the histamine concentration-response curve to the left of control” value in data set [5] (3×10^-6 M AAH, non-irradiated, continually present) is 2.01 fold; in data set [7] (setting [14]), 1.89 fold. In addition, the “shape of histamine concentration-response curve” value is “"bell-shaped" concentration-response curve” in [5] (10^-5 M AAH, non-irradiated, continually present) and “"bell"-shaped” in data set [7] (setting [15]). In addition, the “concentration range over which antagonism by AAH was observed” value in [5] (non-irradiated AAH, continually present) stood at 10 fold. Further, the “reversibility of antagonism of histamine by non-photolyzed AAH” value in [5] (not irradiated) was “reversible if not irradiated”. Further, the “shift of norepinephrine concentration-response curve to the left of control” value in data set [6] (setting [13]) amounted to 5.50 fold. For the same compound, the “effect on maximum responses or EC50's of NE” value in [6] (photoactivated, washed out) was “no effect on the maximum responses or EC50's”. Also, the “reversal of antagonism by repeated washing” value in data set [7] (3×10^-5 M AAH, photolyzed) is “not reversed by repeated washing”. The “effect on the response of the tissues to histamine” value in [7] (3×10^-5 M AAH, photolyzed, washed out) is “abolished the response of the tissues to histamine”; in data set [7] (setting [15]), “intermediate and irreversible antagonism”. For the same compound, the “effect on maximum response to histamine” value in [7] (setting [14]) was “small but significant decrease in the maximum response to histamine”. Moreover, the “concentration range over which antagonism by AAH occurred” value in data set [7] (photolyzed AAH) is given as 10 fold. The “effect on concentration-response relationship for KCl” value in data set [2] (setting [11]) is “no significant effect on concentration-response relationships”. In addition, the “effect on maximum responses or EC50's of KCl” value in data set [2] (setting [12]) was “no effect on the maximum responses or EC50's”. For the same compound, the pEC50 in data set [2] (Cavia porcellus, light or radiation study, read-out: EC50 of KCl, AAH, 3×10^-5 M AAH, non-irradiated, continually present) is 1.82; in data set [2] (Cavia porcellus, light or radiation study, read-out: EC50 of KCl, AAH, 3×10^-5 M AAH, photoactivated, washed out), 1.71. The half-life at 30 µM in [8] (3×10^-5 M AAH, modified Krebs-Henseleit solution, tungsten-halogen lamp 650 W, read-out: t1/2 of first-order absorbance reduction at 266 nm caused by photolysis) came to 3.8 min. The “percent of the maximum absorbance reduction produced by the 5-minute photoaffinity labeling period” value in data set [8] (5 min irradiation, 266 nm) is “ca. 62%”. In data set [9], the “residual effect on responses to histamine” value was “no residual effect on responses to histamine”. For the same compound, the “shift of MgATP concentration-response curve to the left of control” value in data set [10] (setting [13]) worked out at 12.89 fold. Besides, in data set [10] (photoactivated, washed out), the “effect on maximum responses or EC50's of MgATP” value is given as “no effect on the maximum responses or EC50's”.
